PubChem BioAssay (NCI)
“And” between values parts separate entries of the source, which are not always exact repeats. Equal values may be shown once.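 The compound was tested at five concentrations on cells cultured in 96-well plates, with a 48-hour exposure period. Here, GI50 denotes the concentration required for 50% inhibition of growth. The concentration for full growth arrest is given as TGI.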

Tests used:
Experiment in all cases: growth of human tumour cells (NCI), 48 h
M14 melanoma = test system: M14 melanoma
786-0 renal = test system: 786-0 renal
KM12 colon = test system: KM12 colon
U251 CNS = test system: U251 CNS
MDA-MB-435 = test system: MDA-MB-435
LOX IMVI melanoma = test system: LOX IMVI melanoma
UACC-62 melanoma = test system: UACC-62 melanoma
T-47D breast = test system: T-47D breast
COLO 205 colon = test system: COLO 205 colon
HL-60(TB) leukemia = test system: HL-60(TB) leukemia

## CC(C)(C)CC(C)(C)c1ccc(O)c(Cc2ccc(Cl)cc2Cl)c1
M14 melanoma
  GI50: 1610 nM
  TGI: 3080 nM
786-0 renal
  GI50: 1650 nM
  TGI: 3100 nM
KM12 colon
  GI50: 1630 nM
  TGI: 3000 nM
U251 CNS
  GI50: 1560 nM
  TGI: 2900 nM
MDA-MB-435
  GI50: 1650 nM
  TGI: 3010 nM
LOX IMVI melanoma
  GI50: 1530 nM
  TGI: 2860 nM
UACC-62 melanoma
  GI50: 1700 nM
  TGI: 3070 nM
T-47D breast
  GI50: 1350 nM
  TGI: 2690 nM
COLO 205 colon
  GI50: 1770 nM
  TGI: 3150 nM
HL-60(TB) leukemia
  GI50: 2010 nM
  TGI: 3720 nM

## O=c1cnnc(N/N=C/c2ccccc2O)[nH]1
M14 melanoma
  GI50: 449 nM
  TGI: 19200 nM
786-0 renal
  GI50: 5100 nM
  TGI: > 100000 nM
KM12 colon
  GI50: 2850 nM
  TGI: > 100000 nM
U251 CNS
  GI50: 2110 nM
  TGI: > 100000 nM
MDA-MB-435
  GI50: 3540 nM
  TGI: > 100000 nM
LOX IMVI melanoma
  GI50: 1070 nM
  TGI: > 48200 nM
UACC-62 melanoma
  GI50: 1310 nM
  TGI: 7880 nM
T-47D breast
  GI50: 65.6 nM
  TGI: > 100000 nM
COLO 205 colon
  GI50: 330 nM
  TGI: > 100000 nM
HL-60(TB) leukemia
  GI50: 2910 nM
  TGI: 21800 nM

## CC1(C)N=C(N)N=C(N)N1c1ccc(Cl)cc1
M14 melanoma
  GI50: 5520 nM
  TGI: > 100000 nM
786-0 renal
  GI50: 414 nM
  TGI: > 100000 nM
KM12 colon
  GI50: 6680 nM
  TGI: > 100000 nM
U251 CNS
  GI50: 1190 nM
  TGI: > 100000 nM
MDA-MB-435
  GI50: 1180 nM
  TGI: > 100000 nM
LOX IMVI melanoma
  GI50: 2850 nM
  TGI: > 100000 nM
UACC-62 melanoma
  GI50: 4090 nM
  TGI: > 100000 nM
T-47D breast
  GI50: > 100000 nM
  TGI: > 100000 nM
COLO 205 colon
  GI50: 21400 nM
  TGI: > 100000 nM
HL-60(TB) leukemia
  GI50: > 100000 nM
  TGI: > 100000 nM

## COC(=O)c1cc2oc(/C=C3/SC(=S)N(N)C3=O)cc2n1Cc1ccccc1
M14 melanoma
  GI50: 4330 nM
  TGI: 31200 nM
786-0 renal
  GI50: 2840 nM
  TGI: 8530 nM
KM12 colon
  GI50: 6050 nM
  TGI: > 29700 nM
U251 CNS
  GI50: 3970 nM
  TGI: 14000 nM
MDA-MB-435
  GI50: 6650 nM
  TGI: > 41500 nM
LOX IMVI melanoma
  GI50: 2610 nM
  TGI: 16000 nM
UACC-62 melanoma
  GI50: 10600 nM
  TGI: 36100 nM
T-47D breast
  GI50: 3330 nM
  TGI: 10100 nM
COLO 205 colon
  GI50: 5420 nM
  TGI: 20700 nM
HL-60(TB) leukemia
  GI50: > 15700 nM
  TGI: > 100000 nM

## CCc1cnn2c(NCc3ccc[n+]([O-])c3)cc(N3CCCC[C@H]3CCO)nc12
M14 melanoma
  GI50: < 10 nM and 4.38 nM
  TGI: 23.5 nM and 35.1 nM
786-0 renal
  GI50: 10.1 nM and 4.94 nM
  TGI: > 100000 nM
KM12 colon
  GI50: < 10 nM and 3.4 nM
  TGI: > 10000 nM
U251 CNS
  GI50: < 10 nM and 3.68 nM
  TGI: > 100000 nM
MDA-MB-435
  GI50: < 10 nM and 3.31 nM
LOX IMVI melanoma
  GI50: < 10 nM and 2.76 nM
  TGI: > 100000 nM
UACC-62 melanoma
  GI50: < 10 nM and 3.45 nM
  TGI: 30.7 nM and 16.8 nM
T-47D breast
  GI50: < 10 nM and 4.85 nM
  TGI: 77.7 nM
COLO 205 colon
  GI50: < 10 nM and 2.35 nM
  TGI: < 10 nM and 5.86 nM
HL-60(TB) leukemia
  GI50: < 10 nM and 3.19 nM
  TGI: < 10 nM and 11.2 nM

## CC(C)(c1ccccc1)c1cc(O)c(C(C)(C)c2ccccc2)cc1O
M14 melanoma
  GI50: 1820 nM
  TGI: 4990 nM
786-0 renal
  GI50: 2670 nM
  TGI: 9380 nM
KM12 colon
  GI50: 1960 nM
  TGI: 10800 nM
U251 CNS
  GI50: 2140 nM
  TGI: 9970 nM
MDA-MB-435
  GI50: 1430 nM
  TGI: 8850 nM
LOX IMVI melanoma
  GI50: 1540 nM
  TGI: 3820 nM
UACC-62 melanoma
  GI50: 1710 nM
  TGI: 4930 nM
T-47D breast
  GI50: 1810 nM
  TGI: 12700 nM
COLO 205 colon
  GI50: 1660 nM
  TGI: 3400 nM
HL-60(TB) leukemia
  GI50: 1840 nM
  TGI: 5530 nM
